Assay results as given in patent US20060281768A1, “THIENOPYRIMIDINE AND THIENOPYRIDINE KINASE MODULATORS” (priority 2005, published 2006).

What was measured:
MV4-11 cells = experiment: Growth inhibition of MV4-11 cells (CellTiterGlo); type: cell-based; conditions: Homo sapiens, 72 hours, uncertainty +20%
Experimental: FLT3 specific growth inhibition was measured in the leukemic cell line MV4-11 (ATCC Number: CRL-9591). […] MV4-11 cells cannot grow and survive without active FLT31TD.
To measure proliferation inhibition by test compounds the luciferase based CellTiterGlo reagent (Promega) was used. Cells are plated at 10,000 cells per well in 100ul of in RPMI media containing penn/strep, 10% FBS and lng/ml GM-CSF or 1 ng/ml IL-3 for MV4-11 and Baf3 cells respectively.
Compound dilutions or 0.1% DMSO (vehicle control) are added to cells and the cells are allowed to grow for 72 hours at standard cell growth conditions (37° C., 5% CO2). Total cell growth is quantified as the difference in luminescent counts (relative light units, RLU) of cell number at Day 0 compared to total cell number at Day 3 (72 hours of growth and/or compound treatment). One hundred percent inhibition of growth is defined as an RLU equivalent to the Day 0 reading. Zero percent inhibition is defined as the RLU signal for the DMSO vehicle control at Day 3 of growth. All data points are an average of triplicate samples. […] Inhibition and IC50 data analysis was done with GraphPad Prism using a non-linear regression fit with a multiparamater, sigmoidal dose-response (variable slope) equation.
MV-411 cells expressed the FLT3 internal tandem duplication mutation, and thus were entirely dependent upon FLT3 activity for growth. […] In contrast, the Baf3 cell proliferations is driven by the cytokine IL-3 and these cells are used as a non-specific toxicity control for test compounds.

FLT3 571-993 = target: T1, FLT3 571-993 (Homo sapiens, UniProt P36888); experiment: FLT3 Fluorescence Polarization Kinase Assay; type: biochemical; conditions: 10 nM FLT3 571-993, 150 uM ATP, 30 minutes; uncertainty +10%
T1 construct: 10 nM FLT3 571-993, 20 ug/mL poly Glu4Tyr
T1 sequence (P36888 571-993): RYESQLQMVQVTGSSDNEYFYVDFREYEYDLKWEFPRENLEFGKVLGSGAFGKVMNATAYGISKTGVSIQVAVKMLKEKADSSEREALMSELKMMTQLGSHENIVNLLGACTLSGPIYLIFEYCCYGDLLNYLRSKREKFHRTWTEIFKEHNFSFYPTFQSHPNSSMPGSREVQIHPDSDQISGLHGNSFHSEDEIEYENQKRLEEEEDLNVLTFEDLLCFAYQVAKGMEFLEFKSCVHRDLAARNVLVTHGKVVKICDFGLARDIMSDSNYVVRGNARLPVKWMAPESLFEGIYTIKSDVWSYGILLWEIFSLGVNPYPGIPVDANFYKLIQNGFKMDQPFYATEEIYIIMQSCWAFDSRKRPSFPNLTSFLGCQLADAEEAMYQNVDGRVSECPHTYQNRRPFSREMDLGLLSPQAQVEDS
Experimental: The FLT3 FP assay utilizes the fluorescein-labeled phosphopeptide and the anti-phosphotyrosine antibody included in the Panvera Phospho-Tyrosine Kinase Kit (Green) supplied by Invitrogen. When FLT3 phosphorylates poly Glu4Tyr, the fluorescein-labeled phosphopeptide is displaced from the anti-phosphotyrosine antibody by the phosphorylated poly Glu4Tyr, thus decreasing the FP value. The FLT3 kinase reaction is incubated at room temperature for 30 minutes under the following conditions: 10 nM FLT3 571-993, 20 ug/mL poly Glu4Tyr, 150 uM ATP, 5mM MgCl2, 1% compound in DMSO. The kinase reaction is stopped with the addition of EDTA. The fluorescein-labeled phosphopeptide and the anti-phosphotyrosine antibody are added and incubated for 30 minutes at room temperature.
All data points are an average of triplicate samples. Inhibition and IC50 data analysis was done with GraphPad Prism using a non-linear regression fit with a multiparamater, sigmoidal dose-response (variable slope) equation.

| SMILES | IC50 (MV4-11 cells) [nM] | IC50 (FLT3 571-993) [nM] |
| --- | --- | --- |
| CC(C)Oc1ccc(NC(=O)OC2CCN(c3ncnc4sccc34)CC2)cc1 [Compound 2, (4-Isopropoxy-phenyl)-carbamic acid 1-thieno[2,3-d]pyrimidin-4-yl-piperidin-4-yl ester] | > 10000 | 2090 |
| CC(C)c1ccc(NC(=O)OC2CCN(c3ncnc4ccsc34)CC2)cc1 [Compound 7, (4-Isopropyl-phenyl)-carbamic acid 1-thieno[3,2-d]pyrimidin-4-yl-piperidin-4-yl ester] | 4300 | 140 |
| CC(C)Oc1ccc(NC(=O)OC2CCN(c3ncnc4sccc34)C2)cc1 (stereo not drawn) [Compound 4, (4-Isopropoxy-phenyl)-carbamic acid 1-thieno[2,3-d]pyrimidin-4-yl-pyrrolidin-3-yl ester] | > 10000 | 761 |
| CC(C)c1ccc(NC(=O)OC2CCN(c3ncnc4sccc34)C2)cc1 (stereo not drawn) [Compound 3, (4-Isopropyl-phenyl)-carbamic acid 1-thieno[2,3-d]pyrimidin-4-yl-pyrrolidin-3-yl ester] | 2400 | 227 |
| CC(C)c1ccc(NC(=O)OC2CCN(c3ncnc4sccc34)CC2)cc1 [Compound 1, (4-Isopropyl-phenyl)-carbamic acid 1-thieno[2,3-d]pyrimidin-4-yl-piperidin-4-yl ester] | 7200 | 102 |
| O=C(Nc1ccc(OC2CCC2)nc1)NC1CCN(c2ncnc3ccsc23)CC1 [Compound 20, 1-(6-Cyclobutoxy-pyridin-3-yl)-3-(1-thieno [3,2-d]pyrimidin-4-yl-piperidin-4-yl)-urea] | 1500 | – |
| CC(C)Oc1ccc(NC(=O)OC2CCN(c3ncnc4ccsc34)CC2)cc1 [Compound 8, (4-Isopropoxy-phenyl)-carbamic acid 1-thieno[3,2-d]pyrimidin-4-yl-piperidin-4-yl ester] | 3600 | 3030 |
| O=C(Nc1ccc(N2CCOCC2)cc1)OC1CCN(c2ncnc3ccsc23)C1 (stereo not drawn) [Compound 28, (4-Morpholin-4-yl-phenyl)-carbamic acid 1-thieno[3,2-d]pyrimidin-4-yl-pyrrolidin-3-yl ester] | 2100 | – |

Second part, the compound after the results:

| IC50 (MV4-11 cells) [nM] | IC50 (FLT3 571-993) [nM] | SMILES |
| --- | --- | --- |
| 2500 | 296 | CC(C)Oc1ccc(NC(=O)NC2CCN(c3ncnc4ccsc34)C2)cc1 (stereo not drawn) [Compound 12, 1-(4-Isopropoxy-phenyl)-3-(1-thieno[3,2-d]pyrimidin-4-yl-pyrrolidin-3-yl)-urea] |
| 5200 | – | O=C(Nc1ccc(C2CCCCC2)cc1)NC1CCN(c2ncnc3ccsc23)C1 (stereo not drawn) [Compound 16, 1-(4-Cyclohexyl-phenyl)-3-(1-thieno [3,2-d]pyrimidin-4-yl-pyrrolidin-3-yl)-urea] |
| > 5000 | – | O=C(Nc1ccc(N2CCOCC2)cc1)NC1CCN(c2ncnc3ccsc23)C1 (stereo not drawn) [Compound 14, 1-(4-Morpholin-4-yl-phenyl)-3-(1-thieno [3,2-d]pyrimidin-4-yl-pyrrolidin-3-yl)-urea] |
| > 5000 | – | O=C(Nc1ccc(N2CCOCC2)cc1)NC1CCN(c2ncnc3ccsc23)CC1 [Compound 24, 1-(4-Morpholin-4-yl-phenyl)-3-(1-thieno[3,2-d]pyrimidin-4-yl-piperidin-4-yl)-urea] |
| 1400 | – | O=C(Nc1ccc(C2CCCCC2)cc1)NC1CCN(c2ncnc3ccsc23)CC1 [Compound 21, 1-(4-Cyclohexyl-phenyl)-3-(1-thieno [3,2-d]pyrimidin-4-yl-piperidin-4-yl)-urea] |
| 3600 | 365 | CC(C)Oc1ccc(NC(=O)NC2CCN(c3ncnc4sccc34)C2)cc1 (stereo not drawn) [Compound 10, 1-(4-Isopropoxy-phenyl)-3-(1-thieno[2,3-d]pyrimidin-4-yl-pyrrolidin-3-yl)-urea] |
| 1900 | – | O=C(Nc1ccc(Br)cc1)NC1CCN(c2ncnc3ccsc23)C1 (stereo not drawn) [Compound 17, 1-(4-Bromo-phenyl)-3-(1-thieno [3,2-d]pyrimidin-4-yl-pyrrolidin-3-yl)-urea] |
| 6500 | 208 | CC(C)Oc1ccc(NC(=O)OC2CCN(c3ncnc4ccsc34)C2)cc1 (stereo not drawn) [Compound 6, (4-Isopropoxy-phenyl)-carbamic acid 1-thieno[3,2-d]pyrimidin-4-yl-pyrrolidin-3-yl ester] |
| 3800 | – | O=C(Nc1ccc(Oc2ccccc2)cc1)NC1CCN(c2ncnc3ccsc23)CC1 [Compound 22, 1-(4-Phenoxy-phenyl)-3-(1-thieno [3,2-d]pyrimidin-4-yl-piperidin-4-yl)-urea] |
| 3900 | – | O=C(Nc1ccc(N2CCCC2)cc1)NC1CCN(c2ncnc3ccsc23)CC1 [Compound 23, 1-(4-Pyrrolidin-1-yl-phenyl)-3-(1-thieno [3,2-d]pyrimidin-4-yl-piperidin-4-yl)-urea] |
